# In ChEMBL document CHEMBL6096692, “Discovery of 2(1H)-Quinoxalinone Derivatives as Potent and Selective MAT2A Inhibitors for the Treatment of MTAP-Deficient Cancers” (J Med Chem, 2025):
# Activity calls are given as the source filed them. No cut-off for these calls is given here.
# Experiments:
# [1] = Selectivity index, ratio of IC50 for antiproliferative activity against mouse B16-F10 cells harboring wild type MTAP assessed as inhibition of cell viability to IC50 for antiproliferative activity against MTAP knockout mouse B16-F10 cells assessed as inhibition of cell viability; assay type: functional
# [2] = AUC (0 to t) in male ICR mouse at 10 mg/kg, po measured upto 36 hrs by LC-MS/MS analysis; assay type: ADME, organism-based; settings: in vivo
# MIA PaCa-2 = assay: Antitumor activity against MTAP null human MIA PaCa-2 cells xenografted in mouse assessed as inhibition of SAM production in plasma at 30 to 60 mg/kg, po measured after 28 days; assay type: functional, organism-based; settings: dose 30-60 mg/kg, time 28.0 day
# SF-126 [3] = assay: Induction of DNA damage in MTAP knockout human SF-126 cells assessed as increase in gammaH2AX level at 0.1 to 10 uM measured for 96 hrs by immunofluorescence analysis; assay type: functional, cell-based; settings: dose 0.1-10 µM
# Cytochrome P450 2C19 = Cytochrome P450 2C19 (Homo sapiens, UniProt P33261); assay: Inhibition of CYP2C19 in human liver microsomes using S-mephenytoin as substrate incubated for 10 mins in presence of NADPH by LC-MS/MS analysis; assay type: ADME, Microsome
# SF-126 [4] = assay: Induction of DNA damage in MTAP knockout human SF-126 cells assessed as increase in gammaH2AX level at 0.1 to 10 uM measured for 96 hrs by Western blot analysis; assay type: functional, cell-based; settings: dose 0.1-10 µM
# [5] = Drug concentration in mouse plasma at 30 mg/kg, po; assay type: ADME, organism-based; settings: in vivo
# [6] = Cmax in male ICR mouse at 1 mg/kg, iv measured upto 36 hrs by LC-MS/MS analysis; assay type: ADME, organism-based; settings: in vivo
# Daoy [7] = assay: Antitumor activity against human Daoy cells xenografted in mouse assessed as tumor growth inhibition at 30 mg/kg, po measured after 28 days; assay type: functional, organism-based; settings: time 28.0 day
# [8] = Toxicity in ICR mouse at 500 mg/kg, po measured for 7 days; assay type: organism-based; settings: in vivo, 168 h, time 7 day
# B16-F10 [9] = assay: Antiproliferative activity against MTAP knockout mouse B16-F10 cells assessed as inhibition of cell proliferation measured for 96 hrs by SRB assay; assay type: functional, cell-based
# NCI-H1437 = assay: Antiproliferative activity against MTAP null human NCI-H1437 cells assessed as inhibition of cell viability measured for 96 hrs by SRB assay; assay type: functional, cell-based
# B16-F10 [10] = assay: Antiproliferative activity against MTAP knockout mouse B16-F10 cells assessed as inhibition of cell viability measured for 96 hrs by SRB assay; assay type: functional, cell-based; settings: B16-F10, 96 h
# B16-F10 [11] = assay: Inhibition of MAT2A in MTAP knockout mouse B16-F10 cells assessed as reduction in SAM level measured for 4 hrs by immunoblotting analysis; assay type: cell-based; settings: dose <= 1.0 µM
# B16-F10 [12] = assay: Antitumor activity against MTAP-knockout mouse B16-F10 cells implanted in mouse assessed as reduction in tumor volume at 30 to 60 mg/kg, po administered for 10 days and measured after 12 days; assay type: functional, organism-based; settings: dose 30-60 mg/kg, time 22.0 day
# Cytochrome P450 2C9 = Cytochrome P450 2C9 (Homo sapiens, UniProt P11712); assay: Inhibition of CYP2C9 in human liver microsomes using diclofenac as substrate incubated for 10 mins in presence of NADPH by LC-MS/MS analysis; assay type: ADME, Microsome
# Daoy [13] = assay: Antiproliferative activity against MTAP null human Daoy cells assessed as inhibition of cell viability measured for 96 hrs by SRB assay; assay type: functional, cell-based
# [14] = molecular target: Protein arginine N-methyltransferase 5 (Homo sapiens) (UniProt O14744); assay: Inhibition of PRMT5 in MTAP-null human MIA PaCa-2 cells incubated for 24 hrs by Western blot analysis; assay type: cell-based
# MCF7 = assay: Antiproliferative activity against MTAP null human MCF7 cells assessed as inhibition of cell viability measured for 96 hrs by SRB assay; assay type: functional, cell-based
# NCI-H838 = assay: Antiproliferative activity against MTAP null human NCI-H838 cells assessed as inhibition of cell viability measured for 96 hrs by SRB assay; assay type: functional, cell-based
# Chain of Cytochrome P450 2C19 (P33261 whole entry): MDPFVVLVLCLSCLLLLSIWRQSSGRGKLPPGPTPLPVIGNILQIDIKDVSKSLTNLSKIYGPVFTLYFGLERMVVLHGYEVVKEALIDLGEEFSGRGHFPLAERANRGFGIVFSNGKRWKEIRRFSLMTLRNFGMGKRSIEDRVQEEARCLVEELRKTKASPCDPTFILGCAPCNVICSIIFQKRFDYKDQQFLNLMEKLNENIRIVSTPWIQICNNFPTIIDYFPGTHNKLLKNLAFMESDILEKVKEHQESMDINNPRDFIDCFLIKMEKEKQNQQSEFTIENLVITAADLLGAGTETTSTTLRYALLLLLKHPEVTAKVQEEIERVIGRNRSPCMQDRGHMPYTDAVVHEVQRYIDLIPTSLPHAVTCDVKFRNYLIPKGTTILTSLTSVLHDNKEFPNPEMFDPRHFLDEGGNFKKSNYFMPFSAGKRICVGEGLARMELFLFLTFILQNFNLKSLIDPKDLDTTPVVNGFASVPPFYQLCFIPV
# Chain of Protein arginine N-methyltransferase 5 (Homo sapiens) (O14744 whole entry): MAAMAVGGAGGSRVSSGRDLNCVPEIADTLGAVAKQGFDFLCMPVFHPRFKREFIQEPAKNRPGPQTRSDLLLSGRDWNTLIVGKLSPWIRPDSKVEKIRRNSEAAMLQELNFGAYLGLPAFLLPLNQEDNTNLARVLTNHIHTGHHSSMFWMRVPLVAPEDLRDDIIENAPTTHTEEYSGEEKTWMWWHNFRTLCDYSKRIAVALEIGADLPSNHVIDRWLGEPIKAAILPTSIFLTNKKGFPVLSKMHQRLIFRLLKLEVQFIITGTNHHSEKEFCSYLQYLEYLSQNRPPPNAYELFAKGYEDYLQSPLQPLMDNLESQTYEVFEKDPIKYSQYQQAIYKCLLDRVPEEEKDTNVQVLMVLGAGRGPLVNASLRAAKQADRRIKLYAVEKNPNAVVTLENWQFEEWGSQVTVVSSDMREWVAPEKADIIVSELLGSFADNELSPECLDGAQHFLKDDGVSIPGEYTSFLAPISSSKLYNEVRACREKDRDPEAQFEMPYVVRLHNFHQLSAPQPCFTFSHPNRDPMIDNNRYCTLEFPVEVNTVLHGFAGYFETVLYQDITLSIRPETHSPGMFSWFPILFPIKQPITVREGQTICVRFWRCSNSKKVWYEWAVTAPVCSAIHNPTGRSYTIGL
# Chain of Cytochrome P450 2C9 (P11712 whole entry): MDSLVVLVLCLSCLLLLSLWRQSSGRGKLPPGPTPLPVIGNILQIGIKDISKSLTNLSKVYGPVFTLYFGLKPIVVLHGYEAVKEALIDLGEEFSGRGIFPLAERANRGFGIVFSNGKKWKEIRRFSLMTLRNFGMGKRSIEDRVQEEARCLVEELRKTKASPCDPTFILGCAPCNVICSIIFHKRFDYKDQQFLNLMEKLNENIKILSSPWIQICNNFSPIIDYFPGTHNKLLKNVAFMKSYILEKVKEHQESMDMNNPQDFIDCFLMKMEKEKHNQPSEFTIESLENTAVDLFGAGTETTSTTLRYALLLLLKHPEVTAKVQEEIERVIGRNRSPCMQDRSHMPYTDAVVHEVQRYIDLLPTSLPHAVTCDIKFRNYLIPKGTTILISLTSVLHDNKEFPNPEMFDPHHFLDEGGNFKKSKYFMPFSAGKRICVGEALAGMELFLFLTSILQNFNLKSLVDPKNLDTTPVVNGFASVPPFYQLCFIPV
smiles,measurement,setting,value
Cn1cnc2ccc(-c3nc4ccc(C5CC5)cc4n(-c4ccc(OC(F)F)cc4)c3=O)cc21,Ratio IC50,[1],>46.5
same,AUC(0-t) at 36 h,[2],36500 ng·h/mL
same,Activity,MIA PaCa-2,Active
same,Activity,SF-126 [3],Active
same,IC50,Cytochrome P450 2C19,8.7 µM
same,Activity,SF-126 [4],Active
same,Drug uptake,[5],Active
same,Cmax,[6],985 ng/mL
same,TGI,Daoy [7],Active
same,Activity,[8],Non-toxic
same,Activity,B16-F10 [9],Active
same,Activity,NCI-H1437,Active
same,IC50,B16-F10 [10],0.43 µM
same,inhibition,B16-F10 [11],Dose-dependent-effect
same,Activity,B16-F10 [12],Active
same,IC50,Cytochrome P450 2C9,12.7 µM
same,Activity,Daoy [13],Active
same,inhibition,[14],Active
same,Activity,MCF7,Active
same,Activity,NCI-H838,Active
